According to patent US11760773B2, “Small molecule drug conjugates of gemcitabine monophosphate” (MaveriX Oncology, Inc., priority 2018, dated 2023):
Blank lines part the entries; values can stand above or below the molecule they belong to.

What was measured:
UT-SCC-5 = experiment: Tumor cell proliferation (alamarBlue) cytotoxicity assay, UT-SCC-5; assay type: cell-based, human; details: Homo sapiens; UT-SCC-5, 72 hours treatment
Protocol: A tumor cell proliferation assay was used to determine cytotoxicity IC50 values for the phosphate prodrug Compounds 1-9, the parent non-phosphorylated SMDC parent compounds, and the effector (gemcitabine) across eight primary early-passage human head and neck squamous cell carcinoma cell lines including UT-SCC-5, UT-SCC-8, UT-SCC-9, UT-SCC-10, UT-SCC-14, UT-SCC-16A, UT-SCC-16B, and UT-SCC-24A.
UTSCC cells were seeded at 4000 cells/100 I/well on 96-well black clear-bottom tissue culture plate. Cells were incubated at 37° C. and 5% CO2 overnight to allow them to recover and re-attach. The next day cells were treated with the test compound (0-100 μM) for 72 hours. After treatment, cell proliferation was measured by Fluorescent quantitation of alamarBlue reagent. The alamarBlue assay incorporates a fluorometric/colorimetric growth indicator based on detection of metabolic activity. Specifically, resazurin, the active ingredient of alamarBlue reagent, is blue in color and virtually non-fluorescent. Upon entering cells, resazurin is reduced to resorufin, a compound that is red in color and highly fluorescent.
Continued cell growth maintains a reduced environment, therefore increasing the overall fluorescence and color of the media surrounding cells. The fluorescence intensity of alamarBlue reagent was directly proportional to cell number. To perform the alamarBlue assay, 10 I of alamarBlue reagent was added to each well and the plate was incubated at 37° C. for an additional 2 hour. Fluorescence intensity was measured at an excitation of 530 nm and an emission of 590 nm using a BioTek Synergy™ 2 microplate reader.
Cell proliferation assays in triplicate were performed at each concentration. The fluorescent intensity data were analyzed using the computer software, Graphpad Prism. In the absence of the compound, the fluorescent intensity (Ft) in each data set was defined as 100%. In the absence of cells, the fluorescent intensity (Fb) in each data set was defined as 0%. The percent cell in the presence of each compound was calculated according to the following equation: % cell=(F−Fb)/(Ft−Fb), where F=the fluorescent intensity in the presence of the compound, Fb=the fluorescent intensity in the absence of cells, and Ft=the fluorescent intensity in the absence of the compound. The values of % cell versus a series of compound concentrations were then plotted using non-linear regression analysis of Sigmoidal dose-response curve generated with the equation Y=B+(T−B)/1+10^((Log EC50-X)×Hill Slope) where Y=percent cell, B=minimum percent cell, T=maximum percent cell, X=logarithm of compound and Hill Slope=slope factor or Hill coefficient. The IC50 value was determined by the concentration causing a half-maximal percent activity.

[1] = Int 1-4 normal tissue and plasma PK in CD-1 mice (study d); assay type: in vivo; details: male CD-1 mice, iv Int 1-4, FIG. 5
Protocol: Objectives: to compare the normal tissue pharmacokinetics, distribution, and stability of Int 1-4 in excretory organs following a single intravenous infusion administration of Int 1-4 at 20 mg/kg in male CD-1 mice.
PK measurements: compare PK parameters C0, CL, Vdss, Cmax, tmax, t1/2, AUC(0-t), AUC(0-inf), MRT(0-t), MRT(0-inf) for Int 1-4

Human plasma stability = assay type: in vitro ADME
Protocol: Method: Assay was carried out in 96-well microtiter plates. Compounds were incubated in replicates (n=2) for 0, 5, 15, 30, and 45 minutes at 37° C. Reaction mixtures (20 μL) contained a final concentration of 3 μM test compound in human plasma. Eucatropine included as positive control to verify assay performance. Linear regression of semi-log plot of % remaining of compounds versus time used to determine the half-life t½ values.

Human liver S9 stability = assay type: in vitro ADME; details: for microsomal CLint: human
Mouse liver S9 stability = assay type: in vitro ADME; details: for microsomal CLint: mouse
Dog liver S9 stability = assay type: in vitro ADME; details: for microsomal CLint: dog
Rat liver S9 stability = assay type: in vitro ADME; details: for microsomal CLint: rat
[2] = Liver microsomal stability, dog; assay type: in vitro ADME; details: dog liver microsomes
[3] = Liver microsomal stability, monkey; assay type: in vitro ADME; details: monkey liver microsomes
[4] = Liver microsomal stability, rat; assay type: in vitro ADME; details: rat liver microsomes
[5] = Metabolic stability in liver hepatocytes, rat; assay type: in vitro ADME
[6] = Metabolic stability in liver hepatocytes, dog; assay type: in vitro ADME
[7] = Metabolic stability in liver hepatocytes, across species; assay type: in vitro ADME; details: mouse, dog, monkey, rat highest, human lowest, read-out: intrinsic clearance values Cint
[8] = in the clinic; cited from earlier work
[9] = negative value indicates compound is stable, read-out: t1/2 mean ± SE

stability in plasma and major excretory organs (liver, kidney) [1]: stable
Slope Mean ± SE (Human plasma stability; 3 μM, 37° C., semi-log plot of % remaining versus time, in min-1 (unit assumed)): 0.001033 ± 0.001249
stability in human plasma (Human plasma stability; repeat measurements): stable
Slope Mean ± SE (Human liver S9 stability; human liver S9): −0.005545 ± 0.000717
half-life (Human liver S9 stability; human liver S9, read-out: t1/2 Mean ± SE): 125 ± 16.2 min
microsomal CLint (Human liver S9 stability; liver S9, human liver S9, summary, read-out: S9 intrinsic clearance Clint): < 2.5 µL/min/mg
microsomal CLint (Human liver S9 stability; liver S9, human liver S9, text value, read-out: intrinsic clearance value): 2.22 µL/min/mg
microsomal CLint (Human liver S9 stability; liver S9, human liver S9, read-out: CLint Mean ± SE): 2.22 ± 0.287 µL/min/mg
Slope Mean ± SE (Mouse liver S9 stability; mouse liver S9): −0.00317 ± 0.000413
half-life (Mouse liver S9 stability; mouse liver S9, read-out: t1/2 Mean ± SE): 219 ± 28.5 min
microsomal CLint (Mouse liver S9 stability; liver S9, mouse liver S9, summary, read-out: S9 intrinsic clearance Clint): < 2.5 µL/min/mg
microsomal CLint (Mouse liver S9 stability; liver S9, mouse liver S9, text value, read-out: intrinsic clearance value): 1.27 µL/min/mg
microsomal CLint (Mouse liver S9 stability; liver S9, mouse liver S9, read-out: CLint Mean ± SE): 1.27 ± 0.165 µL/min/mg
Slope Mean ± SE (Dog liver S9 stability; dog liver S9): −0.005558 ± 0.000749
half-life (Dog liver S9 stability; dog liver S9, read-out: t1/2 Mean ± SE): 125 ± 16.8 min
intrinsic clearance value (Dog liver S9 stability; dog liver S9 experiment): < 2.5 μL/min/mg protein
microsomal CLint (Dog liver S9 stability; liver S9, dog liver S9, read-out: CLint Mean ± SE): 2.22 ± 0.299 µL/min/mg
microsomal CLint (Dog liver S9 stability; liver S9, dog liver S9 experiment, read-out: intrinsic clearance value): 2.2 µL/min/mg
Slope Mean ± SE (Rat liver S9 stability; rat liver S9): −0.03579 ± 0.001471
intrinsic clearance value (Rat liver S9 stability; rat liver S9, text value): ~14 μL/min/mg protein
half-life (Rat liver S9 stability; rat liver S9, read-out: t1/2 Mean ± SE): 19.4 ± 0.8 min
microsomal CLint (Rat liver S9 stability; liver S9, rat liver S9, text value, read-out: intrinsic clearance value): 14.3 µL/min/mg
microsomal CLint (Rat liver S9 stability; liver S9, rat liver S9, read-out: CLint Mean ± SE): 14.3 ± 0.588 µL/min/mg
half-life [2]: 144 min
microsomal CLint [2]: 9.63 µL/min/mg
Compound Remaining (% of 0 min) 0 min ([2]; 0 min): 100 % of 0 min
Compound Remaining (% of 0 min) 5 min ([2]; 5 min): 97.1 % of 0 min
Compound Remaining (% of 0 min) 15 min ([2]; 15 min): 90.8 % of 0 min
Compound Remaining (% of 0 min) 30 min ([2]; 30 min): 85.7 % of 0 min
Compound Remaining (% of 0 min) 45 min ([2]; 45 min): 80.4 % of 0 min
Compound Remaining (% of 0 min) control ([2]; control): 94.5 % of 0 min
half-life [3]: 34 min
microsomal CLint [3]: 40.8 µL/min/mg
Compound Remaining (% of 0 min) 0 min ([3]; 0 min): 100 % of 0 min
Compound Remaining (% of 0 min) 5 min ([3]; 5 min): 99.5 % of 0 min
Compound Remaining (% of 0 min) 15 min ([3]; 15 min): 79.8 % of 0 min
Compound Remaining (% of 0 min) 30 min ([3]; 30 min): 61.0 % of 0 min
Compound Remaining (% of 0 min) 45 min ([3]; 45 min): 40.5 % of 0 min
Compound Remaining (% of 0 min) control ([3]; control): 97.2 % of 0 min
CLint [4]: 297 μL/min/mg protein
half-life [4]: 4.66 min
microsomal CLint [4]: 297 µL/min/mg
Compound Remaining (% of 0 min) 0 min ([4]; 0 min): 100 % of 0 min
Compound Remaining (% of 0 min) 5 min ([4]; 5 min): 64.7 % of 0 min
Compound Remaining (% of 0 min) 15 min ([4]; 15 min): 20.0 % of 0 min
Compound Remaining (% of 0 min) 30 min ([4]; 30 min): 1.81 % of 0 min
Compound Remaining (% of 0 min) 45 min ([4]; 45 min): 0.13 % of 0 min
Compound Remaining (% of 0 min) control ([4]; control): 95.6 % of 0 min
Slope Mean ± SE [5]: −0.007701 ± 0.001794
half-life [5, 9]: 90 ± 21 min
Slope Mean ± SE [6]: −0.00433 ± 0.001287
half-life [6, 9]: 160 ± 47.6 min
microsomal CLint [7]: 3 to 8 µL/min/mg
SMILES: COc1cc(OC)c2oc(COC(=O)Nc3ccn([C@@H]4O[C@H](CO)[C@@H](O)C4(F)F)c(=O)n3)cc2c1 [Int 1-4, (5,7-di(methoxy)benzofuran-2-yl)methyl (1-((2R,4R,5R)-3,3-difluoro-4-hydroxy-5-(hydroxymethyl)tetrahydrofuran-2-yl)-2-oxo-1,2-dihydropyrimidin-4-yl)carbamate]
IC50 (UT-SCC-5): 16 nM

SMILES: O=c1ccn(C2OC(CO)C(O)C2(F)F)c(=O)[nH]1 (stereo not drawn) [dFdU]
share of the dose recovered in urine found as this species [8]: 99%

SMILES: Nc1ccn([C@@H]2O[C@H](CO)[C@@H](O)C2(F)F)c(=O)n1 [Gemcitabine, gemcitabine]
IC50 (UT-SCC-5): 9 nM
Slope Mean ± SE [5]: 0.00055 ± 0.001504
Slope Mean ± SE [6]: 0.000126 ± 0.001156
injected dose recovered in the urine [8]: 90%
share of the dose recovered in urine found as this species [8]: 1%
